Results from ChEMBL document CHEMBL3045082, “Novel quinazolinone derivatives: synthesis and antimicrobial activity” (2013).
Values after ≈ are worked out from the molar mass of the structure shown. Active and inactive are the calls of the source. No cut-off for these calls is given here.

Tests used:
Streptococcus pyogenes [1] = test: Antimicrobial activity against Streptococcus pyogenes ATCC 19615 assessed as growth inhibition after 24 to 48 hr by two-fold serial dilution method relative to chloramphenicol; assay type: functional
Aspergillus fumigatus [2] = test: Antimicrobial activity against Aspergillus fumigatus assessed as diameter of growth inhibition zone at 1 mg/ml by agar diffusion method; conditions: read-out: DIZ
Streptococcus pyogenes [3] = test: Antimicrobial activity against Streptococcus pyogenes ATCC 19615 assessed as growth inhibition after 24 to 48 hr by two-fold serial dilution method; assay type: functional
[4] = test system: Pseudomonas savastanoi pv. phaseolicola; test: Antimicrobial activity against Pseudomonas syringae pv. phaseolicola GSPB 2828 assessed as diameter of growth inhibition zone at 1 mg/ml after 24 hr by agar diffusion method; assay type: functional; conditions: GSPB 2828, 24 h, read-out: DIZ
Pseudomonas fluorescens [5] = test: Antimicrobial activity against Pseudomonas fluorescens S 97 assessed as growth inhibition after 24 to 48 hr by two-fold serial dilution method; assay type: functional
[6] = test system: Pseudomonas savastanoi pv. phaseolicola; test: Antimicrobial activity against Pseudomonas syringae pv. phaseolicola GSPB 2828 assessed as growth inhibition after 24 to 48 hr by two-fold serial dilution method; assay type: functional
Aspergillus fumigatus [7] = test: Antimicrobial activity against Aspergillus fumigatus assessed as growth inhibition after 24 to 48 hr by two-fold serial dilution method; assay type: functional
Fusarium oxysporum [8] = test: Antimicrobial activity against Fusarium oxysporum assessed as diameter of growth inhibition zone at 1 mg/ml […] by agar diffusion method; assay type: functional; conditions: read-out: DIZ
Staphylococcus aureus [9] = test: Antimicrobial activity against Staphylococcus aureus ATCC 25923 assessed as diameter of growth inhibition zone at 1 mg/ml after 24 hr by agar diffusion method; assay type: functional; conditions: ATCC 25923, 24 h, read-out: DIZ
Streptococcus pyogenes [10] = test: Antimicrobial activity against Streptococcus pyogenes ATCC 19615 assessed as diameter of growth inhibition zone at 1 mg/ml after 24 hr by agar diffusion method; assay type: functional; conditions: ATCC 19615, 24 h, read-out: DIZ
Staphylococcus aureus [11] = test: Antimicrobial activity against Staphylococcus aureus ATCC 25923 assessed as growth inhibition after 24 to 48 hr by two-fold serial dilution method; assay type: functional
Staphylococcus aureus [12] = test: Antimicrobial activity against Staphylococcus aureus ATCC 25923 assessed as growth inhibition after 24 to 48 hr by two-fold serial dilution method relative to cephalothin; assay type: functional
Pseudomonas fluorescens [13] = test: Antimicrobial activity against Pseudomonas fluorescens S 97 assessed as diameter of growth inhibition zone at 1 mg/ml after 24 hr by agar diffusion method; assay type: functional; conditions: S 97, 24 h, read-out: DIZ
Staphylococcus aureus [14] = test: Antimicrobial activity against Staphylococcus aureus ATCC 25923 assessed as growth inhibition after 24 to 48 hr by two-fold serial dilution method relative to chloramphenicol; assay type: functional
Fusarium oxysporum [15] = test: Antimicrobial activity against Fusarium oxysporum assessed as growth inhibition after 24 to 48 hr by two-fold serial dilution method; assay type: functional

Structure (SMILES) | MIC (Streptococcus pyogenes [3]) [µg/mL] | MIC (Pseudomonas fluorescens [5]) | MIC [6] [µg/mL] | MIC (Aspergillus fumigatus [7]) | MIC (Staphylococcus aureus [11]) [µg/mL] | MIC (Fusarium oxysporum [15]) [µg/mL] | growth inhibition (GI) (Streptococcus pyogenes [1]) [%] | zone of inhibition at 1000 µg/mL (Aspergillus fumigatus [2]) [mm] | zone of inhibition at 1000 µg/mL [4] [mm] | zone of inhibition at 1000 µg/mL (Fusarium oxysporum [8]) [mm] | zone of inhibition at 1000 µg/mL (Staphylococcus aureus [9]) [mm] | zone of inhibition at 1000 µg/mL (Streptococcus pyogenes [10]) [mm] | growth inhibition (GI) (Staphylococcus aureus [12]) [%] | zone of inhibition at 1000 µg/mL (Pseudomonas fluorescens [13]) [mm] | growth inhibition (GI) (Staphylococcus aureus [14]) [%]
Cc1ccc(S(=O)(=O)Oc2ccc(-c3nc4ccccc4c(=O)n3-c3ccc(N)cc3)cc2)cc1 |  | 50 µg/mL (≈ 103 µM) |  | 25 µg/mL (≈ 51.7 µM) |  | 6.25 (≈ 12.9 µM) |  | 26 | 15 | 37 | 14 | 15 |  | 18 | 
C[C@@H]1C[C@@H]([C@H](O)CC2CC(=O)NC(=O)C2)C(=O)[C@@H](C)C1 [CYCLOHEXIMIDE] |  |  |  | 3.12 µg/mL (≈ 11.1 µM) |  | 3.12 (≈ 11.1 µM) |  | 42 |  | 43 |  |  |  |  | 
Cc1ccc(S(=O)(=O)Oc2ccc(-c3nc4ccccc4c(=O)n3-n3c(C)nc4ccccc4c3=O)cc2)cc1 |  | 50 µg/mL (≈ 90.8 µM) |  | 6.25 µg/mL (≈ 11.4 µM) | 50 (≈ 90.8 µM) |  |  | 38 | 14 | 15 | 19 | 15 |  | 19 | 
Cc1ccc(S(=O)(=O)Oc2ccc(C3=Nc4ccccc4C4=NCCN34)cc2)cc1 | 6.25 (≈ 15 µM) | 50 µg/mL (≈ 120 µM) | 25 (≈ 59.9 µM) |  | 25 (≈ 59.9 µM) |  |  | 14 | 26 | 15 | 25 | 37 |  | 19 | 
Cc1ccc(S(=O)(=O)Oc2ccc(-c3nc4ccccc4c4nc5ccccc5n34)cc2)cc1 | 25 (≈ 53.7 µM) | 6.25 µg/mL (≈ 13.4 µM) |  | 50 µg/mL (≈ 107 µM) | 25 (≈ 53.7 µM) |  |  | 20 | 14 | 16 | 26 | 25 |  | 37 | 
Cc1ccc(S(=O)(=O)Oc2ccc(-c3nc4ccccc4c4nc(=O)[nH]n34)cc2)cc1 |  |  | 6.25 (≈ 14.5 µM) |  |  | 50 (≈ 116 µM) |  | 15 | 38 | 19 | 15 | 15 |  | 15 | 
Cc1ccc(S(=O)(=O)Oc2ccc(C(=O)Nc3ccccc3-c3nc4ccccc4[nH]3)cc2)cc1 | 25 (≈ 51.7 µM) |  | 50 (≈ 103 µM) | inactive | 25 (≈ 51.7 µM) |  |  |  | 19 | 15 | 25 | 25 |  | 14 | 

More lines, in order of falling MIC (Staphylococcus aureus [11]), values ahead:

MIC (Streptococcus pyogenes [3]) [µg/mL] | MIC (Pseudomonas fluorescens [5]) | MIC [6] [µg/mL] | MIC (Aspergillus fumigatus [7]) | MIC (Staphylococcus aureus [11]) [µg/mL] | MIC (Fusarium oxysporum [15]) [µg/mL] | Structure (SMILES) | growth inhibition (GI) (Streptococcus pyogenes [1]) [%] | zone of inhibition at 1000 µg/mL (Aspergillus fumigatus [2]) [mm] | zone of inhibition at 1000 µg/mL [4] [mm] | zone of inhibition at 1000 µg/mL (Fusarium oxysporum [8]) [mm] | zone of inhibition at 1000 µg/mL (Staphylococcus aureus [9]) [mm] | zone of inhibition at 1000 µg/mL (Streptococcus pyogenes [10]) [mm] | growth inhibition (GI) (Staphylococcus aureus [12]) [%] | zone of inhibition at 1000 µg/mL (Pseudomonas fluorescens [13]) [mm] | growth inhibition (GI) (Staphylococcus aureus [14]) [%]
6.25 (≈ 14.3 µM) | 50 µg/mL (≈ 115 µM) |  | inactive | 12.5 (≈ 28.6 µM) | 50 (≈ 115 µM) | Cc1ccc(S(=O)(=O)Oc2ccc(-c3nnnn3-c3ccccc3C(=O)O)cc2)cc1 |  |  | 14 | 19 | 32 | 38 | 50 | 20 | 25
 |  | 50 (≈ 86.4 µM) |  | 12.5 (≈ 21.6 µM) | 12.5 (≈ 21.6 µM) | Cc1ccc(S(=O)(=O)Oc2ccc(-c3nc4ccccc4c(=O)n3C3=NNC(=O)C3/N=N/c3ccccc3)cc2)cc1 (centres undefined) |  | 16 | 20 | 31 | 32 | 14 | 50 | 16 | 25
6.25 (≈ 15.8 µM) | 6.25 µg/mL (≈ 15.8 µM) | 6.25 (≈ 15.8 µM) |  | 6.25 (≈ 15.8 µM) |  | CC(=O)OCC1=C(C(=O)O)N2C(=O)[C@@H](NC(=O)Cc3cccs3)[C@H]2SC1 [CEPHALOTHIN] |  |  | 38 |  | 36 | 37 |  | 37 | 
6.25 (≈ 13.1 µM) |  |  | 50 µg/mL (≈ 105 µM) | 6.25 (≈ 13.1 µM) |  | Cc1ccc(S(=O)(=O)Oc2ccc(-c3nc4ccccc4c(=O)n3-c3nccs3)cc2)cc1 | 50 | 19 | 14 | 15 | 38 | 38 |  | 16 | 50
6.25 (≈ 11.9 µM) | 50 µg/mL (≈ 95.1 µM) | 50 (≈ 95.1 µM) | inactive | 6.25 (≈ 11.9 µM) |  | Cc1ccc(S(=O)(=O)Oc2ccc(-c3nc4ccccc4c(=O)n3-c3nc4ccccc4s3)cc2)cc1 | 50 |  | 19 | 14 | 38 | 37 |  | 20 | 50
6.25 (≈ 10.2 µM) | inactive | 50 (≈ 81.6 µM) | 12.5 µg/mL (≈ 20.4 µM) | 3.12 (≈ 5.1 µM) |  | Cc1ccc(S(=O)(=O)Oc2ccc(-c3nc4ccccc4c(=O)n3-c3ccc(C4=NNC(c5ccccc5)C4)cc3)cc2)cc1 (centres undefined) | 50 | 31 | 19 | 14 | 43 | 38 |  |  | 
6.25 (≈ 9.97 µM) | inactive | 50 (≈ 79.8 µM) | 12.5 µg/mL (≈ 19.9 µM) | 3.12 (≈ 4.99 µM) |  | Cc1ccc(C2CC(c3ccc(-n4c(-c5ccc(OS(=O)(=O)c6ccc(C)cc6)cc5)nc5ccccc5c4=O)cc3)=NN2)cc1 (centres undefined) | 50 | 31 | 19 | 14 | 43 | 38 |  |  | 
3.12 (≈ 9.67 µM) | 6.25 µg/mL (≈ 19.3 µM) | 6.25 (≈ 19.3 µM) |  | 3.12 (≈ 9.67 µM) |  | O=C(N[C@H](CO)[C@H](O)c1ccc([N+](=O)[O-])cc1)C(Cl)Cl [CHLORAMPHENICOL] |  |  | 37 |  | 42 | 44 |  | 38 | 
6.25 (≈ 9.72 µM) | inactive | 50 (≈ 77.8 µM) | 12.5 µg/mL (≈ 19.4 µM) | 3.12 (≈ 4.86 µM) |  | COc1ccc(C2CC(c3ccc(-n4c(-c5ccc(OS(=O)(=O)c6ccc(C)cc6)cc5)nc5ccccc5c4=O)cc3)=NN2)cc1 (centres undefined) | 50 | 31 | 19 | 14 | 43 | 38 |  |  | 
6.25 (≈ 13.9 µM) | 50 µg/mL (≈ 111 µM) |  |  | 3.12 (≈ 6.97 µM) | 25 (≈ 55.7 µM) | Cc1ccc(S(=O)(=O)Oc2ccc(-c3nc4ccccc4c4nc(=S)[nH]n34)cc2)cc1 |  | 14 | 15 | 26 | 44 | 37 |  | 19 | 
